Measurements: patent US20010051630A1, “Use of hydroxylamine derivatives, and method and preparations for increasing the tolerance of field crops against weather stresses” (priority 1997, published 2001)
Marks after values point to notes of the source that are not given here.

Experiments:
Format in all cases: in vivo
bean plants (cv. Seaway) = assay: Drought tolerance of beans, part b (7 days hardening); settings: 7 days without water, 10 mg/liter and 100 mg/liter solution named, table does not say which
Description: Based on the experiences of our preliminary experiments, the plants were hardened before the application of the active agent by withholding the water for a few days, until the first signs of withering appeared. Then the plants were watered and the active agent was either dissolved in the water, or sprayed to the plants directly. Afterwards, the plants were subjected to different periods of drought according to the given experiment, watered again, and after a week-long regeneration period, the survival ratio was determined.
b) In this experiment, bean plants (cv. Seaway) were hardened for 7 days instead of the 5 days described in Part a. Then a 10 mg/liter and 100 mg/liter concentration solution of the active agent was applied two times a day for two days. Then 7 days without water followed, and after a week-long regeneration period, the results of the experiment were evaluated.

HMv09 inbred maize line = assay: CSVT, seeds soaked in active agent, HMv09 maize; settings: seeds soaked in 10 mg/l active agent
Experimental: In this experiment the tolerance of maize, soybean and pepper seeds treated with the active agent against cold was tested. This test imposed temperature and oxygen deficiency stresses on the seeds and was carried out according to Barla-Szabó and Dolinka CSVT (Complex Stressing Vigour Test). For a single test, two hundred seeds were soaked for 48 hours at 25° C. and another 48 hours at 5° C in 150 ml distilled water containing the active agent in 10 mg/l concentration. Following the 96 hours of soaking, the seeds were further germinated between rolled wet paper for 96 hours at 25° C. There were 25 seeds in each roll, the rolls were placed vertically into containers and covered with a plastic bag in order to reduce evaporation. During the whole procedure the seeds were kept in darkness. At the end of the experiment the number of normally developing and ungerminated seeds were recorded. The length of the normal seedlings was measured and the average length of the five longest seedlings was calculated. Seedlings longer than 0.33 times the average length of the five longest seedlings were considered to be of high vigour, and low vigour seedlings were shorter than this length.

Mo 17 maize inbred line = assay: Chilling tolerance of maize in a gradient chamber
Experimental: The experiment was performed using the Mo 17 maize inbred line. The seeds were coated with a 2% solution of the examined compound dissolved in 2 ml polyvinylalcohol before germination, where the above quantity of solution is applied for 100 seeds. The seeds were germinated for 3 days wrapped in wet filter paper, they were sown and then cultivated in gradient chamber for 6 weeks. In the gradient chamber, the temperature was maintained on a scale between 18 and 12° C., with differences of 1° C. This was followed by a one week regeneration at 23/20° C. temperature.
In the experiment, the length of the plants was measured 16, 31 and 43 days after the sowing, and at the end of the experiment the fresh weight of the plants was measured. The experiment was performed on 4 plants at each temperature and by each treatment.

Which results are given for `CC(C)(C)NCC(O)CONC(=O)c1cccc(C(F)(F)F)c1.Cl` (stereo not drawn) [Compound 1, N-[2-hydroxy-3-(1,1-dimethylethyl-amino)propoxy]-3-trifluoromethyl-benzamide monohydrochloride]?
Survival (%) (bean plants (cv. Seaway)): 14* %; Ratio of high vigour plants (%) (HMv09 inbred maize line): 49* %; Length (cm) (Mo 17 maize inbred line; 12° C., 16 days): 5.0 cm; Length (cm) (Mo 17 maize inbred line; 12° C., 31 days): 7.9 cm; FW (g), fresh weight (Mo 17 maize inbred line; 12° C., 43 days): 1.2 g; Length (cm) (Mo 17 maize inbred line; 12° C., 43 days): 18.9 cm; Length (cm) (Mo 17 maize inbred line; 13° C., 16 days): 6.0 cm; Length (cm) (Mo 17 maize inbred line; 13° C., 31 days): 10.1 cm; FW (g), fresh weight (Mo 17 maize inbred line; 13° C., 43 days): 1.0 g; Length (cm) (Mo 17 maize inbred line; 13° C., 43 days): 16.0 cm; Length (cm) (Mo 17 maize inbred line; 14° C., 16 days): 7.6 cm; Length (cm) (Mo 17 maize inbred line; 14° C., 31 days): 15.4 cm; FW (g), fresh weight (Mo 17 maize inbred line; 14° C., 43 days): 2.7 g; Length (cm) (Mo 17 maize inbred line; 14° C., 43 days): 25.9 cm; Length (cm) (Mo 17 maize inbred line; 15° C., 16 days): 10.0 cm; Length (cm) (Mo 17 maize inbred line; 15° C., 31 days): 17.7 cm; FW (g), fresh weight (Mo 17 maize inbred line; 15° C., 43 days): 3.6 g; Length (cm) (Mo 17 maize inbred line; 15° C., 43 days): 28.5 cm; Length (cm) (Mo 17 maize inbred line; 16° C., 16 days): 15.2 cm; Length (cm) (Mo 17 maize inbred line; 16° C., 31 days): 24.8 cm; FW (g), fresh weight (Mo 17 maize inbred line; 16° C., 43 days): 4.5 g; Length (cm) (Mo 17 maize inbred line; 16° C., 43 days): 32.3 cm; Length (cm) (Mo 17 maize inbred line; 17° C., 16 days): 17.0 cm; Length (cm) (Mo 17 maize inbred line; 17° C., 31 days): 27.7 cm; FW (g), fresh weight (Mo 17 maize inbred line; 17° C., 43 days): 5.5 g; Length (cm) (Mo 17 maize inbred line; 17° C., 43 days): 36.5 cm; Length (cm) (Mo 17 maize inbred line; 18° C., 16 days): 13.2 cm; Length (cm) (Mo 17 maize inbred line; 18° C., 31 days): 28.4 cm; FW (g), fresh weight (Mo 17 maize inbred line; 18° C., 43 days): 6.0 g; Length (cm) (Mo 17 maize inbred line; 18° C., 43 days): 37.0 cm
